Test results reported in patent US10082496B2, “Targeting emopamil binding protein (EBP) with small molecules that induce an abnormal feedback response by lowering endogenous cholesterol biosynthesis” (Board of Regents of the University of Texas System, priority 2014, dated 2018).

How the values were obtained:
DLD-1 = test: In vitro APC inhibition assay (MTT), DLD-1; format: cell-based; conditions: Homo sapiens
Procedure: (§1) The small molecule anti-cancer compounds were evaluated for the ability to inhibit the activity of APC in an in vitro assay.
(§2) Reagents required for the assay are: (3-[4,5-Dimethylthiazol-2-yl]-2,5-diphenyltetrazolium bromide; Thiazolyl blue; RPI corp., cat# M92050); RPMI-1640 or Medium of Choice (i.e. DMEM) without phenol red; 1M Hepes; 100 mM NaPyruvate; 1000× Gentamicin (50 mg/ml); 100× Penicillin/Streptomycin/Fungizone; 1×PBS; Triton X-100; 1N HCl and Isopropanol. To make the MTT solution (10×), MTT powder was dissolved into complete RPMI (or DMEM solution) to a final concentration of 5 mg/mL and was sterilized by filtration with a 0.2 μm filter. The MTT solubilization solution contained 10% Triton X-100, 0.1N and 80% isopropanol. MTT solution was diluted to 1× with complete medium at 12 mL per plate. The culture dishes (96 wells) were removed from the incubator and the media was discarded. […] The cells were removed from the incubator and the MTT solution was discarded.
(§3) Percent inhibition was determined relative to control reactions without inhibitor, and half maximal inhibitory concentration (IC50) values were determined using a standard four parameter fit to the inhibition data.

S9 half-life = format: in vitro ADME; conditions: S9 fraction; read-out: S9 T1/2
HCT-116 = test: In vitro APC inhibition assay (MTT), HCT-116; format: cell-based; conditions: Homo sapiens, HCT-116, read-out: IC50 (nM) in HCT-116
Procedure: as §1
Reagents required for the assay are: (3-[4,5-Dimethylthiazol-2-yl]-2,5-diphenyltetrazolium bromide; Thiazolyl blue; RPI corp., cat# M92050); RPMI-1640 or Medium of Choice (i.e. DMEM) without phenol red; 1M Hepes; 100 mM NaPyruvate; 1000× Gentamicin (50 mg/ml); 100× Penicillin/Streptomycin/Fungizone; 1×PBS; Triton X-100; 1N HCl and Isopropanol. To make the MTT solution (10×), MTT powder was dissolved into complete RPMI (or DMEM solution) to a final concentration of 5 mg/mL and was sterilized by filtration with a 0.2 μm filter. The MTT solubilization solution contained 10% Triton X-100, 0.1N and 80% isopropanol. MTT solution was diluted to 1× with complete medium at 12 mL per plate. The culture dishes (96 wells) were removed from the incubator and the media was discarded. The plates were washed three times with 1×PBS. 100 μl of 1×MTT solution was added to each well and the plates were incubated in a tissue culture incubator for 2-4 hours, depending on the cell line. The cells were removed from the incubator and the MTT solution was discarded. 200 μl of 1×MTT solubilization solution was added to each well using a multi-channel pipetor and the cells were placed on an orbital shaker for 10 minutes. The results were read on a microtiter plate reader (absorbance=570 nm, reference=700 nm) and data was exported.
as §3

HT-29 = test: In vitro APC inhibition assay (MTT), HT-29; format: cell-based; conditions: Homo sapiens
Procedure: as §1, §2, §3

DLD1 cells = test: Dose response studies in CRC line DLD1 (truncated APC); format: cell-based, human; conditions: varying doses
Procedure: (§4) These 14 compounds then were obtained commercially and their IC50 determined by performing dose response studies with half log dilution series at 12 concentration points in two authentic CRC lines: HCT116 (wt APC) and DLD1 (truncated APC).
DLD-1 cells normally are cultured in 10% serum medium, and they are rapidly shifted to 0.2% serum medium for dose response studies.

[1] = test system: colorectal tumors in CPC;Apc mice; test: CPC;Apc genetically engineered mouse model of colorectal tumors; conditions: in vivo
Procedure: These mice carry a CDX2P-NLS Cre recombinase transgene and a loxP-targeted Apc allele that deletes exon 14, leading to a frame shift at codon 580 and a truncated APC protein (Hinoi, T. et al. Mouse model of colonic adenoma-carcinoma progression based on somatic Apc inactivation. Cancer Res 67, 9721-9730 (2007)). […] Weights were measured every 15 days over the treatment period. These studies were performed according to the guidelines of the UT Southwestern Institutional Animal Care and Use Committee.

HCT116 cells = test: Dose response studies in CRC line HCT116 (wt APC); format: cell-based; conditions: Homo sapiens, HCT-116; read-out: IC50 towards HCT116 cells
Text: as §4, with “APC). […] These two compounds served as initial lead compounds for analog development and for additional studies.” for “APC).”

DLD1 tumors = test: DLD1 xenograft mouse model; format: in vivo; conditions: 40 mg/kg intraperitoneally twice daily for 18 days

Row | SMILES | IC50 (DLD-1; DLD-1, DLD-1 (truncated APC)) [nM] | IC50 (HCT-116) [nM] | IC50 (HT-29; HT-29, HT-29 (truncated APC)) [nM] | further results
1 | CC1CCN(C2CCN(S(=O)(=O)c3c(C(C)C)cc(C(C)C)cc3C(C)C)CC2)CC1 | 0.7 | – | – | half-life (S9 half-life): 59 min
2 | C[C@H]1CC[N@+](C)(C2CCN(S(=O)(=O)c3ccccc3)CC2)CC1 | > 10000 | – | – | –
3 | COc1ccc(S(=O)(=O)N2CCC([N+]3(C)CCCC3)CC2)cc1 | > 10000 | – | – | –
4 | C#CCOCCC1CCCCN1C1CCN(S(=O)(=O)c2ccccc2)CC1 (stereo not shown) | – | > 10000 | 2300 | –
5 | C#CCC1CCN(C2CCN(S(=O)(=O)c3ccccc3)CC2)CC1 | 18 | > 10000 | 4 | half-life (S9 half-life): 25.2 min
6 | C#CCOc1ccc(CN2CCC(N3CCC(C)CC3)CC2)cc1N=[N+]=[N-] | 921 | > 10000 | 437 | –
7 | C#CCOc1ccc(N=[N+]=[N-])cc1S(=O)(=O)N1CCC(N2CCC(C)CC2)CC1 | 15000 | > 10000 | 4500 | –
8 | CC1CCN(C2CCN(S(=O)(=O)c3ccc4ncsc4c3)CC2)CC1 | 38 | > 10000 | 26 | –
9 | CC1CCN(C2CCN(S(=O)(=O)c3ccc(-c4ccc(Cl)cc4)cc3)CC2)CC1 | – | > 10000 | 112 | –
10 | COc1ccc(-c2ccc(S(=O)(=O)N3CCC(N4CCC(C)CC4)CC3)cc2)cc1 | – | > 10000 | 288 | –
11 | Cc1cc(C)c(S(=O)(=O)N2CCC(N3CC(C)CC(C)C3)CC2)c(C)c1 (stereo not shown) | – | > 10000 | 15 | –
12 | C[Si](C)(C)C#CCC1CCN(C2CCN(S(=O)(=O)c3ccc(Br)cc3)CC2)CC1 | – | > 10000 | – | IC50 (DLD-1; DLD-1 (truncated APC)): 2.9 nM; IC50 (HT-29; HT-29 (truncated APC)): 1.7 nM
13 | CC1CCN(C2CCN(S(=O)(=O)c3ccc(Cl)cc3)CC2)CC1 | – | > 10000 | 5.6 | –
14 | C#CCC1CCN(C2CCN(S(=O)(=O)c3ccc(C(=O)c4ccccc4)cc3)CC2)CC1 | 4.8 | > 10000 | 5.2 | –
15 | CC1CCN(C2CCN(S(=O)(=O)c3ccccc3-c3ccc(C(F)(F)F)cc3)CC2)CC1 | – | > 10000 | 57 | –
16 | COc1ccccc1-c1ccc(S(=O)(=O)N2CCC(N3CCC(C)CC3)CC2)cc1 | – | > 10000 | 19 | –
17 | CC(C(O)c1ccc(O)cc1)N1CCC(Cc2ccccc2)CC1 (stereo not shown) [Ifenprodil] | – | – | – | sensitivity of DLD-1 vs HCT-116 cells to EBP inhibitors (FIG. 10) (DLD1 cells): selectively sensitive
18 | COc1ccc2c(c1)CCC(c1ccccc1)=C2c1ccc(OCCN2CCCC2)cc1 [Nafoxidine] | – | – | – | sensitivity of DLD-1 vs HCT-116 cells to EBP inhibitors (FIG. 10) (DLD1 cells): selectively sensitive
19 | COc1ccc(S(=O)(=O)N2CCC(N3CCC(C)CC3)CC2)cc1 [TASIN-1] | – | – | – | toxicity in xenograft and genetically engineered CRC mouse models [1]: without noticeable toxicity; IC50 (HCT116 cells): > 10000 nM; overt toxicity (DLD1 tumors): no overt toxicity

Second part, led by results:

Row | IC50 (DLD-1; DLD-1, DLD-1 (truncated APC)) [nM] | IC50 (HCT-116) [nM] | IC50 (HT-29; HT-29, HT-29 (truncated APC)) [nM] | SMILES | further results
20 | 10 | – | – | CC1CCN(C2CCN(S(=O)(=O)c3cccc4c3OCCO4)CC2)CC1 | half-life (S9 half-life): 22.6 min
21 | – | > 10000 | 1100 | C#CCC1CCCCN1C1CCN(S(=O)(=O)c2ccccc2)CC1 (stereo not shown) | –
22 | – | > 10000 | 35 | C#CCOCCC1CCN(C2CCN(S(=O)(=O)c3ccccc3)CC2)CC1 | –
23 | 504 | > 10000 | 185 | C#CCOc1ccc(C(=O)c2ccccc2)cc1S(=O)(=O)N1CCC(N2CCC(C)CC2)CC1 | –
24 | – | > 10000 | 2200 | CC1CCN(C2CCN(S(=O)(=O)c3cccnc3)CC2)CC1 | –
25 | – | > 10000 | 61 | Cc1cc(C)c(S(=O)(=O)N2CCC(N3CCC(C)OC3)CC2)c(C)c1 (stereo not shown) | –
26 | – | > 10000 | 1.2 | CC1CCN(C2CCN(S(=O)(=O)c3ccc(Br)cc3)CC2)CC1 | –
27 | – | > 10000 | 234 | CC1CCN(C2CCN(S(=O)(=O)c3ccc(-c4ccccc4)cc3)CC2)CC1 | –
28 | – | > 10000 | 14 | Cc1ccc(S(=O)(=O)N2CCC(N3CCC(C)CC3)CC2)cc1 | –
